Several values for one entry are separate records, joined by “and”; a condition that tells them apart may be missing. Equal values may be shown once. Read-outs that look alike come from different tables or passages of the source.
Key:
[1] = Tigecycline in human serum, tissue and synovial fluid after one intravenous 100 mg dose (LC/MS/MS); type: in vivo; set-up: Calculated Concentration, serum: unit not given here
Description: The objective of this study was to determine the tissue and corresponding serum concentration of tigecycline at selected time points in lung, colon, gallbladder tissues, bone, and synovial fluid. Samples were taken from subjects scheduled for lung, colon, gallbladder, or bone surgery, or a lumbar puncture who were given a single dose of tigecycline administered intravenously.
Pre-specified tissue/fluid sampling of either lung, colon, gallbladder, bone, and synovial fluid was performed on each subject during surgery at 4 hours, 8 hours, 12 hours, or 24 hours after the start of a single dose of 100 mg tigecycline administered over 30 minutes. Serum was collected from all subjects at hour 0 (before the first dose), approximately 30 minutes (end of infusion), and at the time corresponding to tissue/fluid collections. Tissue and serum concentration was determined according to the method set forth below.
Samples of human serum and tissue from study subjects who had received tigecycline were analyzed according to methods that had been previously validated. Serum samples and synovial fluid (0.2 ml) were mixed with 0.6 ml internal standard in acetonitrile, the supernatant evaporated to dryness and the residue reconstituted in 200 microliters mobile phase. Aliquots (10 microliters) of the reconstituted samples were injected into an LC/MS/MS.
The data was acquired by and analyzed on PE SCIEX “Analyst” version 1.3 software. Linear regression, with 1/x^2 weighting was used to obtain the best fit of the data for the calibration curves. The lower limit of quantitation was 10 ng/ml for serum and synovial fluid samples, 10 ng/g for the colon and gall bladder samples, and 30 ng/g for the bone samples.
Tigecycline was measured in human serum using an LC/MS/MS method. The primary stock solution of tigecycline was prepared at 1 mg/ml by dissolving in methanol. A secondary stock solution was prepared from the primary stock solution by diluting to a concentration of approximately 40,000 ng/ml with acetonitrile. The stock solutions were stored at −20° C. when not in use. A primary internal standard solution of tert-butyl-d9-tigecycline was prepared at a concentration of 1 mg/ml in methanol. A secondary internal standard stock solution was prepared by diluting the primary stock solution to a concentration of 100 micrograms/ml in acetonitrile with 0.1% trifluoroacetate added. The primary and secondary stock solutions were stored at −20° C. The working internal standard was prepared by diluting to volume with acetonitrile/0.1% trifluoroacetate. The working internal standard was stored at 4° C. when not in use. On the day of analysis, the secondary stock solution was brought to room temperature before use to prepared the standard curve working solutions. The standard curve was prepared at approximately 2000, 1600, 1000, 500, 250, 100, 50, 20, and 10 ng/ml by serial dilution in blank human serum.
The extraction procedure was as follows: to 200 microliters of calibrator, quality control or sample was added 600 microliters of internal standard working solution and vortex mixed. The samples were centrifuged for 10 minutes at 13000 rpm to separate the layers and the supernatant was transferred to a culture tube. The samples were evaporated to dryness in a Speed Vac. The residues were reconstituted by sonicating in 200 microliters of mobile phase and 10 microliters was injected in the LC/MS/MS. […]

[2] = tested on: Mycobacterium abscessus; type: in vivo, human; details: vertebral osteomyelitis patient
Description: Debridement was accomplished after one year of infection with placement of hardware. […] The amikacin was later stopped due to renal damage. Linezolid and azithromycin were later added to the treatment regimen. The organism was determined to be resistant to moxifloxacin.
The patient presented later with a new vertebral osteomyelitis just above the site of the old infection. A biopsy was performed and it was determined that no additional debridement was needed. […] Tigecycline was administered up to MIC 0.25 micrograms/ml. The patient's white blood cell count was normal while hypogammaglobulinemia was present and lymphocytic function decreased. The patient had also been under treatment with IL-12, but IL-12 was held during antibiotic treatment.

[3] = for ratio of AUC in tissue to AUC in plasma: bone, bone marrow, salivary gland, thyroid, spleen, kidney (each)

Structure (SMILES) | Calculated Concentration, tissue ([1]; Lung, 4 to 24 hours after dose) | concentration at 8 h ([1]; human, synovial fluid, intravenous, 100 mg, synovial fluid, 8 Hour, read-out: Calculated Concentration, synovial fluid) | concentration at 12 h ([1]; human, synovial fluid, intravenous, 100 mg, synovial fluid, 12 Hour, read-out: Calculated Concentration, synovial fluid) | Calculated Concentration, serum ([1]; serum, 8 Hour) | Calculated Concentration, synovial fluid ([1]; synovial fluid, 12 Hour) | clinical outcome [2] | ratio of AUC in tissue to AUC in plasma [3] | ratio of AUC in tissue to AUC in plasma ([3]; listed as carbon-14 tigecycline) | ratio of AUC in lung to AUC in plasma ([3]; lung)
CN(C)c1cc(NC(=O)CNC(C)(C)C)c(O)c2c1C[C@H]1C[C@H]3[C@H](N(C)C)C(O)=C(C(N)=O)C(=O)[C@@]3(O)C(O)=C1C2=O [Tigecycline] | 653 n2/2 | 70.9 ng/mL | 111 ng/mL | 198 {n&mll and 186 {n&mll and 133 {n&mll and 206 {n&mll | 65.0 ng/mL and 65.7 ng/mL and 62.8 ng/mL | doing well a year after the treatment | – | – | –
CN(C)c1cc(NC(=O)CNC(C)(C)C)c(O)c2c1C[C@H]1C[C@H]3[C@H](N(C)C)C(O)=C(C(N)=O)C(=O)[C@@]3(O)C(O)=C1C2=O [[^14C]-Tigecycline] | – | – | – | – | – | – | greater than 10 | > 10 | 4.4
